# Read-outs that look alike come from different tables or passages of the source.
# Columns and labels:
# [1] = tested on: leukotriene B4-stimulated neutrophil enzyme release; assay: β-glucuronidase release from neutrophils stimulated by leukotriene B4; format: cell-based, human; details: 100 nM leukotriene B4
# Experimental: FIG. 8. The Effect of Ac-RRWWCR-NH2 (SEQ ID NO:1) on β-glucuronidase Release. Neutrophils pretreated with cytochalasin B were incubated with 100 nM IL-8 (●), 100 nM fMLP (▪), 100 nM C5a (_) or 100 nM leukotriene B4 ? or without any stimulant (◯) in the presence of increasing concentration of Ac-RRWWCR-NH2 (SEQ ID NO:1) for 30 min at 37° C. β-glucuronidase activity of supernatants were measured using phenolphthalein-glucuronic acid as substrate. Analysis of variance was used for multiple comparison.
# Neutrophil enzyme release was studied by a modification of the method of Goldstein and colleagues (Goldstein et al., 1973). Cytochalasin B (Sigma Chemical Co.) was stored in dimethyl sulfoxide at a concentration of 5 mg/ml and was diluted to a concentration of 50 μg/ml in Hank's Balanced Salt Solution (HBSS) immediately before use. Cytochalasin B, 200 μl, was added to 1 ml of suspension of neutrophils, 6.25×10^6 cells/ml in HBSS, to achieve a final cytochalasin B concentration of […]. The solution was then incubated in 96 well plates at room temperature for 10 min. The stimulant, 100 μl, was added, and this cell suspension was incubated for 30 min at 37° C. The plates were centrifuged and 100 μl of supernatant was removed. […] After 16 hr incubation at 37° C., 200 μl of 0.2 M Glycine in 0.2 M NaCl, pH10.4 was added to each well and OD540 was measured as the enzyme activity.
# [2] = tested on: WM115 melanoma cells; assay: Tumor cell growth, WM115; format: cell-based
# [3] = tested on: Hs 294T melanoma cells; assay: Cell growth assay, Hs 294T; format: cell-based, human
# Experimental: FIG. 15A. The effect of Antileukinate on the growth of melanoma cells. Melanoma cell lines and a control liver cancer cell line (2×10^4 cells/well) in 500 μl were cultured in a 24 well tissue culture plate in the presence of various concentrations of Antileukinate for 3 d. The culture media were changed to fresh media containing the same concentration of Antileukinate every 24 hr during the incubation period. After incubation, the cells were collected and the cell number was counted using a hemocytometer. Hs 294 T cell line. Analysis of variance was used for multiple comparison.
# The cell lines (2×10^4 cells/well) in 500 μl cell culture medium were grown in 24 well tissue culture plates. After the cells adhered to the plate, the supernatants were aspirated and 500 μl of media containing various concentrations of Antileukinate were added to the wells. The cells were cultured for period indicated in the text. The culture media were changed to fresh media every 24 hr. After incubation, the cells were detached with trypsin-EDTA solution (Life Technologies Inc., Gaithersburg, Md., containing 0.05% of trypsin and 0.53 mM of EDTA in Hanks Balanced Salt Solution without Ca^2+ and Mg^2+) and the cell number was counted using a hemocytometer.
# [4] = tested on: IL-8 receptors on neutrophils; assay: Inhibition of 125I-labeled IL-8 binding to human neutrophils; details: for Receptor 1 Bmax of IL-8, two-site model / Receptor 2 Bmax of IL-8, two-site model: binding isotherms, Lundon I
# Experimental: Therefore, in pursuing this aim, the present inventors assayed various other peptide compositions for IL-8 inhibitory activity by screening a library of 400 groups of hexapeptides. In these screening assays, ^125I-labeled interleukin-8 (10^−12 M) was mixed with 100 μM peptide, then added to neutrophils and incubated at 4° C. for 90 min. The bound radioactivity was separated from unbound by centrifugation through a dense cushion of a mixture of paraffin and silicon oils and the ^125I bound to neutrophils was counted in a gamma radiation spectrometer, allowing the results to be expressed as the percent of IL-8 binding which was inhibited.
# The use of human subjects for acquisition of neutrophils was approved by the Institutional Review Board for human experimentation. For the preparation of neutrophils, human blood was anticoagulated with heparin for enzyme release studies and with 0.33% sodium citrate for other studies. For chemotactic and enzyme release studies neutrophils were separated by dextran sedimentation and erythrocyte lysis by the method of Boyum (Kohler and Milstein, 1975). For binding studies and cytotoxic studies, the neutrophils were further purified in gradients of Percoll (Pharmacia Fine Chemicals, Piscataway, N.J.) to a purity of 90-93% (Kohler and Milstein, 1975).
# Recombinant human IL-8 (72 amino acids; Pepro Tech Inc., Rocky Hill, N.J.) was radioactively labeled with ^125I by the chloramine T method of Hunter and Greenwood (Hunter and Greenwood, 1962). Binding studies were performed according to Besemer et al. (1989), as follows: Neutrophils in phosphate buffered saline pH 7.4 (PBS) containing 0.1% bovine serum albumin (BSA) were incubated with labeled ligand in the presence or absence of the peptide being tested for 90 min at 4° C. to reach equilibrium and then centrifuged at 12,000×g for 3 min in Beckman B microfuge (Beckman Instruments, Fullerton, Calif.), through a cushion consisting of a mixture of paraffin oil Fisher Scientific, Fair Lawn, N.J.) and silicon oil (Serva Co., N.Y., N.Y.). The pellet and supernatant were then counted in a gamma radiation spectrometer. The non-specific binding was estimated to measure the binding in the presence of 100-fold excess of non-labeled ligand. The binding constants were calculated using the computer programs Lundon I and Lundon II.
# In these studies, a screening for inhibition was carried out at 100 μM concentration of the peptide being tested, with a 10^−12 M concentration of IL-8. In the first series of studies, twenty peptides were synthesized with the carboxyl-terminal residue of RRWWCX (SEQ ID NO:23) being changed to each of the standard protein amino acids in turn.
# [5] = tested on: lung adenocarcinoma cell line KS-LU-1; assay: Tumor cell growth, KS-LU-1; format: cell-based
# [6] = tested on: neutrophils
# Experimental: Cytotoxicity Test. […] (●) or in RPMI-1640 media containing 1% BSA for 30 min at 37° C. (◯).
# This was achieved by measuring the amount of ^51Cr released from neutrophils, as follows: The neutrophil preparation (2×10^7/ml) in RPMI-1640 media containing 10% donor's plasma was incubated with 500 μCi of Na2^51CrO4 (Du Pont Co.) for 60 min at 37° C. The cells were washed 3 times, resuspended in the media at the concentration of 1×10^7/ml, and then incubated for 30 min at 37° C. to allow spontaneous lysis of marginally viable cells. […] The buffer and the conditions of incubation simulated either the binding assay or the chemotactic assay. After the incubation, the tubes were centrifuged at 300×g for 7 min at 4° C. and the radioactivity in the supernatant was then counted in a gamma radiation spectrometer. Triplicate tubes containing buffer alone or 2% SDS were used to determine spontaneous and maximum release, respectively. The percentage lysis was calculated by using the following formula: [formula]
# [7] = +10 μM Ac-RRWWCR, binding inhibition curves, Lundon II
substance,measurement,setting,value
RRWWCR [Ac-RRWWCR-NH2],effect on enzyme release stimulated by leukotriene B4,[1],did not affect the enzyme release
same,effect on cell growth,[2],suppresses the growth
same,cell growth at 100 μM peptide,[3]; 100 μM,suppressed the cell growth almost completely
same,peptide concentration significantly inhibiting growth,[3]; 72 hr,10 µM
same,EC50,"[3]; 72 hr, medium changed every 24 hr, read-out: ED50, cell growth inhibition",18 µM
same,concentration at which IL-8 binding was suppressed significantly,[4]; 1 nM 125I-labeled IL-8 (FIG. 5),100 nM
same,EC50,"[4]; 1 nM 125I-labeled IL-8, 90 min at 4° C., multiple replicates, read-out: average EC50 of the binding inhibition curve",13.7 ± 0.6 µM
same,EC50,"[4]; 1 nM IL-8, FIG. 10, peptide premixed with ligand 15 min, read-out: EC50, inhibition of binding of IL-8 to neutrophils",~25 µM
same,inhibition of IL-8 binding to neutrophils,[4]; 10 μM peptide (FIG. 9),20%
same,"Receptor 1 Bmax of IL-8, two-site model",[4]; 10 μM peptide,91.9 ± 9.2 fmole/10^6 cells
same,"Receptor 2 Bmax of IL-8, two-site model",[4]; 10 μM peptide,90.9 ± 9.7 fmole/10^6 cells
same,IL-8 binding inhibition at lower peptide concentration (FIG. 1),[4]; 20 μM peptide,most potent inhibitor
same,"Receptor 1 Bmax of IL-8, two-site model",[4]; 20 μM peptide,90.9 ± 27.3 fmole/10^6 cells
same,"Receptor 2 Bmax of IL-8, two-site model",[4]; 20 μM peptide,76.2 ± 11.8 fmole/10^6 cells
same,"Receptor 1 Bmax of IL-8, two-site model",[4]; 40 μM peptide,82.0 ± 25.4 fmole/10^6 cells
same,"Receptor 2 Bmax of IL-8, two-site model",[4]; 40 μM peptide,44.2 ± 30.0 fmole/10^6 cells
same,% INHIB. (IL-8 binding to neutrophils),"[4]; 100 μM peptide, 10^−12 M IL-8, hexamer RRWWCX series, first screen",112.2%
same,Receptor 1 Bmax of IL-8,[4]; [7],11.2 ± 0.8 fmole/10^6 cells
same,Receptor 2 Bmax of IL-8,[4]; [7],75.6 ± 0.7 fmole/10^6 cells
same,% INHIB. (IL-8 binding to neutrophils),"[4]; first set of heptamer studies, D-amino acid RRWWCRX series, methodology of Example I",112.2%
same,effectiveness relative to the non-acetylated peptide,[4]; inhibiting IL-8 binding to neutrophils,almost twice as effective
same,IC50,"[4]; read-out: IC50, binding of radiolabeled IL-8",13.7 µM
same,Ki,"[4]; specific binding of 125I-labeled IL-8, read-out: apparent K1 (estimated, purely competitive single site model)",~10 µM
same,% Binding Inhibition (IL-8 binding to neutrophils),"[4]; synthetic peptides, standard assay (Table 6)",98.6 ± 0.9%
same,effect on cell growth,[5],inhibits growth
same,cell lysis under conditions used in chemotaxis,"[6]; 100 μM peptide, RPMI-1640 1% BSA, 30 min at 37° C.",had no effect
same,cells damaged under conditions used in chemotaxis,"[6]; 500 μM peptide, RPMI-1640 1% BSA, 30 min at 37° C.",~25%
same,percentage of cells lysed,"[6]; PBS containing 0.1% BSA, 90 min at 4° C., up to 500 μM peptide",remained near control level
